In US7531655B2, “Large conductance calcium-activated K channel opener” (Mitsubishi Tanabe Pharma Corporation, priority 2002, dated 2009) one finds 100% inhibiting time and IC50 data, which are given here for 2 compounds.

For experiment [1], the system named is rhythmic bladder contractions induced by substance P. Kind of experiment: Inhibitory effect on the rhythmic bladder contractions induced by substance P in anesthetized rats. To be noted: 0.25 mg/kg intravenous; time during which frequency of rhythmic contraction was completely inhibited; urethane-anesthetized Sprague-Dawley female rats. It counts as in vivo, rat. As to the method: Inhibitory Effect on the Rhythmic Bladder Contractions Induced by Substance P in Anesthetized Rats For the experiments, Sprague-Dawley female rats (9 to 12 weeks old) weighing between 200 to 300 g were used. After urethane anesthetization (subcutaneously administered with a dose of 1.2 g/kg), cannulae were placed in both right and left femoral veins. One intravenous catheter was used for administration of compounds, and the other was for the substance P (0.33 μg/kg/min) infusion. We also cannulated into ureter to pass urine. Polyethylene catheters were inserted into carotid artery for continuous monitoring of arterial blood pressure and heart rate. For continuous infusion, transurethral bladder catheter was inserted into the bladder through the urethra and tied in place by a ligature around the urethral orifice. One end of the catheter was attached to a pressure transducer in order to measure intravesical pressure. The other end of the catheter was used for infusion of saline into the bladder. After stabilization of blood pressure and heart rate and after the bladder was emptied, cystometry was performed by filling the bladder slowly with about 0.6 ml of saline. After about 10 minutes, intravenous infusion of substance P (0.33 μg/kg/min) was started for stabilization of the micturition reflex. […]

The test system of experiment [2] is isolated rabbit urinary bladder. The experiment in a line: Relaxation effect on potassium-induced contraction of isolated rabbit urinary bladder. It counts as cell-based. As to conditions: Oryctolagus cuniculus, read-out: IC50 value (50% relaxation concentration). As to the method: Relaxation Effect on Potassium-Induced Contraction of Isolated Rabbit Urinary Bladder
Urinary bladder was isolated from Male NZW rabbits (body weight: 2.0-3.5 kg) and immersed in ice-cold Krebs-bicarbonate solution (in mM: 118 NaCl, 4.7 KCl, 2.55 CaCl2, 1.18 MgSO4, 1.18 KH2PO4, 24.88 NaHCO3 and 11.1 glucose). The urinary bladder was cut into longitudinal strips (5 mm length 3-4 mm width) after mucosal layer was removed.
Preparations were mounted in organ baths containing 10 ml of Krebs solution maintained at 37° C. and gassed with 95% O2/5% CO2. Accordingly, preparations were stretched with an initial tension of 2.0±1.0 g, and changes in isometric tension were measured by force-displacement transducer. The preparations were pre-contracted by changing organ-bath solution into high-K^+ (30 mM) Krebs solution (in mM: 118 NaCl, […], 2.55 CaCl2, 1.18 MgSO4, 1.18 KH2PO4, 24.88 NaHCO3 and 11.1 glucose).
After stable tension was obtained, compounds were added into organ baths cumulatively (10^−8 M-10^−4 M). The effects of compounds were expressed as a percentage of the maximum relaxation produced by 10^−4 M papaverine as 100%. 50% relaxation concentration (IC50) was calculated and IC50 value range (μM) of compounds of the present invention was shown in the following Table 1 with a rank of A, B or C. These ranges are as mentioned below. • 3 μM≧C>1 μM≧B>0.5 μM≧A

On to `O=C([O-])Cc1oc(-c2ccccc2)cc1-c1ccc(Cl)s1.[Na+]` [2 (Compound 6)], for which the 100% inhibiting time in experiment [1] was found to be 13.1 min. Further, the IC50 in experiment [2] was under 500 nM.
The like results for `O=C([O-])Cc1sc(-c2ccccc2)cc1-c1ccc(Cl)s1.[Na+]` [3 (Compound 6)] were, in that order, 27.1 min and 500 to 1000 nM.
